According to the CheMixHub viscosity set:

Experiment: xn = mol fraction of the nth substance listed
Conditions: 101.33 kPa

CC(N)CN (stereo not given) + OCCCCO
viscosity [mPa·s]
Conditions	293.15 K	298.15 K	303.15 K	308.15 K	313.15 K	318.15 K
x2 = 0.0415	2.17	1.92	1.66	1.48	1.3	1.21
x2 = 0.0837	2.83	2.5	2.1	1.86	1.63	1.54
x2 = 0.1267	3.76	3.28	2.72	2.37	2.07	1.91
x2 = 0.1705	5.08	4.37	3.59	3.08	2.65	2.44
x2 = 0.2152	6.86	5.84	4.71	4.02	3.41	3.11
x2 = 0.2606	8.9	7.88	6.27	5.26	4.42	–
x2 = 0.3069	13.32	10.91	8.54	7.05	5.85	–
x2 = 0.3541	18.39	14.82	11.39	9.32	7.62	–
x2 = 0.4022	25.44	20.09	15.23	12.31	9.87	–
x2 = 0.4513	34.76	27.12	20.33	16.17	13.1	–
x2 = 0.5013	47.13	36.26	26.83	21.01	16.42	–
x2 = 0.5523	61.72	47.01	34.44	26.7	20.75	–
x2 = 0.6043	75.89	57.65	42	32.37	25.02	–
x2 = 0.6574	90.68	69.04	50.16	38.64	29.82	–
x2 = 0.7116	99.83	76.3	55.75	42.89	33.12	–
x2 = 0.7669	106	81.64	60.1	46.57	36.08	–
x2 = 0.8233	107.2	83.62	61.98	48.39	37.8	–
x2 = 0.881	104.3	82.14	61.43	48.46	38.15	–
x2 = 0.9399	98.79	78.35	59.29	47.22	37.43	–

CC(N)CN (stereo not given) + OCCO
viscosity [mPa·s]
Conditions	298.15 K	303.15 K	308.15 K	313.15 K	318.15 K
x2 = 0.0513	1.89	1.66	1.4	1.33	1.23
x2 = 0.1024	2.46	2.17	1.8	1.69	1.53
x2 = 0.1534	3.22	2.9	2.34	2.19	1.98
x2 = 0.2043	4.66	3.91	3.1	2.84	2.51
x2 = 0.255	6.47	5.31	4.14	3.73	3.23
x2 = 0.3056	9.02	7.28	5.57	4.91	4.28
x2 = 0.356	12.47	9.89	7.43	6.42	5.39
x2 = 0.4064	17.12	13.17	9.78	8.33	6.89
x2 = 0.4566	22.35	17	12.38	10.39	8.36
x2 = 0.5066	27.55	20.91	15.09	12.54	10
x2 = 0.5565	32.68	24.47	17.48	14.47	11.46
x2 = 0.6063	36.17	26.99	19.26	15.91	12.62
x2 = 0.6556	37.44	28.04	20.15	16.67	13.25
x2 = 0.7055	36.53	27.76	20.09	16.66	13.32
x2 = 0.7549	34.46	26.24	19.07	15.99	12.78
x2 = 0.8042	32.78	24.03	17.71	14.9	11.97
x2 = 0.8533	28.17	21.54	15.99	13.67	11.17
x2 = 0.9024	24.94	18.68	14.07	12.16	10
x2 = 0.9512	20.88	16.21	12.23	10.67	8.83
